In patent US5945404A, “21-Substituted steroid compound” (priority 1993, dated 1999):
Where two headings read alike, the source gives them in different places.

Tests used:
granuloma = experiment: Inhibitory Effects on Granuloma Growth (Paper Disk Method); assay type: in vivo, male Sprague-Dawley rats; conditions: Rattus norvegicus, topical, 168 h, rat, paper disk; ointment 0.1%, 50 mg once a day, 7 days; read-out: Weight of granuloma, per cent of change of the controls
Procedure: Ointment to be tested was prepared usign white soft paraffin as the base and containing dexamethasone at 0.1% concentration.
Groups of 5 male Sprague-Dawley rats each weighing 150-170 g were used. Under ether anesthesia, the dorsum of animals was closely clipped, and medianly incised. After each one pre-weighed paper disk (8-mm diameter, 1-mm thick, weighing about 30 mg; Toyo-Roshi filter paper) was inserted subcutaneously into both sides of the dorsal incision, the incision was sutured. In order to prevent bacterial infection, penicillin G potassium salt (2,000 units) per rat was intramascularly injected after the surgery. Base or ointment to be tested (50 mg each) was rubbed carefully into the skin over the paper disk inserted site, for 30 seconds once a day for the duration of 7 days. Rats were slipped plastic cangs on to prevent them from licking the drug applied sites. On the 8th day of the test, rats were sacrificed under ether anesthesia, and granulomas were carefully excised. Granulomas were dried at 40° C. for 24 h, and their dry weights were recorded.
Inhibitory effects of dexamethasone derivatives on the weight increase of granuloma of experimental animals as compared with those of control animals are shown as per cent of inhibition ov er the control in Table 1. Figures wihth asterisks in the table indicate signfiicant difference. The same will be applied to the following other tables.

[1] = test system: croton oil-induced granuloma; experiment: Croton Oil-induced Granuloma (granuloma pouch); assay type: in vivo, male Sprague-Dawley rats; conditions: for inhibition in vivo at 0.01 mg / inhibition in vivo at 0.1 mg / inhibition in vivo at 1 mg: Rattus norvegicus, 168 h
Procedure: Groups of 5 male Sprague-Dawley rats each weighing 160-180 g were used. Under ether anesthesia, the dorsum of animals was closely clipped, and air sac was formed by injecting air (20 ml) subcutaneously. Next day cotton seed oil containing 1% croton oil was injected into the air sac. Drugs to be tested were suspended in the cotton seed oil containing 1% croton oil, and administered. After 7 days, the blood was taken from the animal under ether anesthesia. Then, the granuloma pouch fluid (exudate) was collected, and the fluid volume was measured. The pouch wall formed around granuloma and thymus were also excised and weighed.

[2] = 0.01 mg/rat, 7 days, read-out: Effects on granuloma weight, per cent of inhibition over the control
[3] = 0.01 mg/rat, 7 days, read-out: Effects on pouch fluid (exudate) volume, per cent of inhibition over the control
[4] = 0.1 mg/rat, 7 days, read-out: Effects on granuloma weight, per cent of inhibition over the control
[5] = 0.1 mg/rat, 7 days, read-out: Effects on pouch fluid (exudate) volume, per cent of inhibition over the control
[6] = 1.0 mg/rat, 7 days, read-out: Effects on granuloma weight, per cent of inhibition over the control
[7] = 1.0 mg/rat, 7 days, read-out: Effects on pouch fluid (exudate) volume, per cent of inhibition over the control
[8] = read-out: Effects on granuloma weight, per cent of inhibition over the control

Structure (SMILES) | change in vivo at 0.1 %, 50 mg (granuloma) [%] | also measured
COC(=O)[C@H]1O[C@@H]2OC(C)(OCC(=O)[C@@]3(O)[C@H](C)C[C@H]4[C@@H]5CCC6=CC(=O)C=C[C@]6(C)[C@@]5(F)[C@@H](O)C[C@@]43C)O[C@@H]2[C@@H](OC(C)=O)[C@H]1OC(C)=O (stereo partly drawn) [Compound 64'] | -41.3 ± 2.3 | 
COC(=O)[C@H]1O[C@@H](OCC(=O)[C@@]2(O)[C@H](C)C[C@H]3[C@@H]4CCC5=CC(=O)C=C[C@]5(C)[C@@]4(F)[C@@H](O)C[C@@]32C)[C@H](OC(=O)c2ccc(C)cc2)[C@@H](OC(=O)c2ccc(C)cc2)[C@@H]1OC(=O)c1ccc(C)cc1 [Compound 59β] | -7.7 ± 6.8 | 
COC(=O)[C@H]1O[C@@H](OCC(=O)[C@@]2(O)[C@H](C)C[C@H]3[C@@H]4CCC5=CC(=O)C=C[C@]5(C)[C@@]4(F)[C@@H](O)C[C@@]32C)[C@H](OC(C)=O)[C@@H](OC(C)=O)[C@H]1OC(C)=O [Compound 64β] | -32.5 ± 0.5 | 
Cc1ccc(C(=O)OC[C@H]2O[C@@H](OCC(=O)[C@@]3(O)[C@@H](C)C[C@H]4[C@@H]5C[C@H](F)C6=CC(=O)C=C[C@]6(C)[C@@]5(F)[C@@H](O)C[C@@]43C)[C@H](OC(=O)c3ccc(C)cc3)[C@@H](OC(=O)c3ccc(C)cc3)[C@@H]2OC(=O)c2ccc(C)cc2)cc1 [Compound 107β, glucosyldiflorasone (p-toluoyl derivative)] | -6.3 ± 5.5 | inhibition in vivo at 0.01 mg [1, 2]: -21.2 ± 19.2%; inhibition in vivo at 0.01 mg [1, 3]: -28.5 ± 18.8%; inhibition in vivo at 0.1 mg [1, 4]: -23.3 ± 21.4%; inhibition in vivo at 0.1 mg [1, 5]: -30.9 ± 20.9%; inhibition in vivo at 1 mg [1, 6]: 28.1 ± 12.5%; inhibition in vivo at 1 mg [1, 7]: 28.8 ± 15.2%
Cc1ccc(C(=O)OC[C@H]2O[C@@H](OCC(=O)[C@@]3(O)[C@H](C)C[C@H]4[C@@H]5CCC6=CC(=O)C=C[C@]6(C)[C@@]5(F)[C@@H](O)C[C@@]43C)[C@H](OC(=O)c3ccc(C)cc3)[C@@H](OC(=O)c3ccc(C)cc3)[C@H]2OC(=O)c2ccc(C)cc2)cc1 [Compound 14β] | -8.7 ± 7.2 | 
Cc1ccc(C(=O)OC[C@H]2O[C@@H](OCC(=O)[C@H]3[C@H](C)C[C@H]4[C@@H]5C[C@H](F)C6=CC(=O)C=C[C@]6(C)[C@@]5(F)[C@@H](O)C[C@@]43C)[C@H](OC(=O)c3ccc(C)cc3)[C@@H](OC(=O)c3ccc(C)cc3)[C@@H]2OC(=O)c2ccc(C)cc2)cc1 [Compound 109β, Glucosyldiflucortolone (p-toluoyl derivative)] | -0.2 ± 3.7 | 
CC(=O)N[C@H]1[C@H](OCC(=O)[C@@]2(O)[C@H](C)C[C@H]3[C@@H]4CCC5=CC(=O)C=C[C@]5(C)[C@@]4(F)[C@@H](O)C[C@@]32C)O[C@H](CO)[C@H](O)[C@@H]1O [Compound 45β, N-acetylgalactosaminyldexamethasone] | -28.1 ± 3.5 | 
C[C@@H]1C[C@H]2[C@@H]3CCC4=CC(=O)C=C[C@]4(C)[C@@]3(F)[C@@H](O)C[C@]2(C)[C@@]1(O)C(=O)CO[C@@H]1O[C@H](C(=O)O)[C@H](O)[C@H](O)[C@H]1O [Compound 65β, β-galacturonyldexamethasone] | -33 ± 3.3 | 
CC(=O)N[C@H]1[C@H](OCC(=O)[C@@]2(O)[C@H](C)C[C@H]3[C@@H]4CCC5=CC(=O)C=C[C@]5(C)[C@@]4(F)[C@@H](O)C[C@@]32C)O[C@H](CO)[C@@H](O)[C@@H]1O [Compound 35β, β-N-acetylglucosaminyldexamethasone] | -21.9 ± 4.2 | 
Cc1ccc(C(=O)OC[C@H]2O[C@H](OCC(=O)[C@@]3(O)[C@H](C)C[C@H]4[C@@H]5CCC6=CC(=O)C=C[C@]6(C)[C@@]5(F)[C@@H](O)C[C@@]43C)[C@@H](OC(=O)c3ccc(C)cc3)[C@@H](OC(=O)c3ccc(C)cc3)[C@@H]2OC(=O)c2ccc(C)cc2)cc1 [Compound 24α, mannosyldexamethasone] | -3.7 ± 4.5 | 
CC(=O)N[C@H]1[C@H](OCC(=O)[C@@]2(O)[C@H](C)C[C@H]3[C@@H]4CCC5=CC(=O)C=C[C@]5(C)[C@@]4(F)[C@@H](O)C[C@@]32C)O[C@H](COC(C)=O)[C@H](OC(C)=O)[C@@H]1OC(C)=O [Compound 44β] | -16.5 ± 3 | 
COC(=O)[C@H]1O[C@@H](OCC(=O)[C@@]2(O)[C@H](C)C[C@H]3[C@@H]4CCC5=CC(=O)C=C[C@]5(C)[C@@]4(F)[C@@H](O)C[C@@]32C)[C@H](OC(=O)c2ccc(C)cc2)[C@@H](OC(=O)c2ccc(C)cc2)[C@H]1OC(=O)c1ccc(C)cc1 [Compound 69β] | 0.7 ± 2.4 | 
CCCC(=O)O[C@]1(C(=O)COC(C)=O)CC[C@H]2[C@@H]3C[C@H](F)C4=CC(=O)C=C[C@]4(C)[C@@]3(F)[C@@H](O)C[C@@]21C [Diflupredonate, reference compound] |  | Effects on thymus weight, per cent of inhibition over the control thymus weight ([1]; 0.01 mg/rat, 7 days): 14.7 ± 10.4 per cent; Effects on thymus weight, per cent of inhibition over the control thymus weight ([1]; 0.1 mg/rat, 7 days): 71.2 ± 2.9 per cent; Effects on thymus weight, per cent of inhibition over the control thymus weight ([1]; 1.0 mg/rat, 7 days): 71.8 ± 3.2 per cent; inhibition in vivo at 0.01 mg [1, 2]: -11 ± 23.1%; inhibition in vivo at 0.01 mg [1, 3]: 17.4 ± 13.5%; inhibition in vivo at 0.1 mg [1, 4]: 35 ± 10.3%; inhibition in vivo at 0.1 mg [1, 5]: 65.3 ± 12.1%; inhibition in vivo at 1 mg [1, 6]: 78.8 ± 5%; inhibition in vivo at 1 mg [1, 7]: 96.2 ± 1.2%
Cc1ccc(C(=O)OC[C@H]2O[C@H](OCC(=O)[C@@]3(O)[C@H](C)C[C@H]4[C@@H]5CCC6=CC(=O)C=C[C@]6(C)[C@@]5(F)[C@@H](O)C[C@@]43C)[C@H](OC(=O)c3ccc(C)cc3)[C@@H](OC(=O)c3ccc(C)cc3)[C@H]2OC(=O)c2ccc(C)cc2)cc1 [Compound 14α] | 5.7 ± 1.9 | 
COC(=O)[C@H]1O[C@@H]2OC(C)(OCC(=O)[C@@]3(O)[C@H](C)C[C@H]4[C@@H]5CCC6=CC(=O)C=C[C@]6(C)[C@@]5(F)[C@@H](O)C[C@@]43C)O[C@@H]2[C@@H](OC(C)=O)[C@@H]1OC(C)=O (stereo partly drawn) [Compound 54'] | -44.8 ± 2.4 | 
COC(=O)[C@H]1O[C@@H](OCC(=O)[C@@]2(O)[C@H](C)C[C@H]3[C@@H]4CCC5=CC(=O)C=C[C@]5(C)[C@@]4(F)[C@@H](O)C[C@@]32C)[C@H](OC(C)=O)[C@@H](OC(C)=O)[C@@H]1OC(C)=O [Compound 54β] | -35.1 ± 2.8 | 
Cc1ccc(C(=O)OC[C@H]2O[C@H](OCC(=O)[C@@]3(O)[C@H](C)C[C@H]4[C@@H]5CCC6=CC(=O)C=C[C@]6(C)[C@@]5(F)[C@@H](O)C[C@@]43C)[C@H](OC(=O)c3ccc(C)cc3)[C@@H](OC(=O)c3ccc(C)cc3)[C@@H]2OC(=O)c2ccc(C)cc2)cc1 [Compound 4α] | -0.6 ± 5.1 | 
CCCCC(=O)OCC(=O)[C@H]1[C@H](C)C[C@H]2[C@@H]3C[C@H](F)C4=CC(=O)C=C[C@]4(C)[C@@]3(F)[C@@H](O)C[C@@]21C [Diflucortolone valerate, reference compound] |  | inhibition in vivo at 0.01 mg [1, 8]: 12.8 ± 5.1%; inhibition in vivo at 1 mg [1, 8]: 66 ± 7.1%
CC(=O)N[C@H]1[C@H](OCC(=O)[C@@]2(O)[C@H](C)C[C@H]3[C@@H]4CCC5=CC(=O)C=C[C@]5(C)[C@@]4(F)[C@@H](O)C[C@@]32C)O[C@H](COC(C)=O)[C@@H](OC(C)=O)[C@@H]1OC(C)=O [Compound 34β, N-acetylglucosaminyldexamethasone] | -21.3 ± 3.9 | 
Cc1ccc(C(=O)OC[C@H]2O[C@@H](OCC(=O)[C@@]3(O)[C@H](C)C[C@H]4[C@@H]5CCC6=CC(=O)C=C[C@]6(C)[C@@]5(F)[C@@H](O)C[C@@]43C)[C@H](OC(=O)c3ccc(C)cc3)[C@@H](OC(=O)c3ccc(C)cc3)[C@@H]2OC(=O)c2ccc(C)cc2)cc1 [Compound 4β] | -7.9 ± 5 | 
C[C@@H]1C[C@H]2[C@@H]3CCC4=CC(=O)C=C[C@]4(C)[C@@]3(F)[C@@H](O)C[C@]2(C)[C@@]1(O)C(=O)CO[C@@H]1O[C@H](C(=O)O)[C@@H](O)[C@H](O)[C@H]1O [Compound 55β, β-glucuronyldexamethasone] | -37.4 ± 7.1 | 
